Measured values as given in US12594259B2, “Treatment regimen for the treatment of neurological diseases or conditions” (ACCURE THERAPEUTICS, S.L., priority 2019, dated 2026).
Entries after “also recorded” stand apart in the source; their conditions may differ. Where two headings read alike, the source gives them in different places.

Tests used:
[1] = tested on: Lysolecithin induced optic neuritis in SD Rats; assay: Axonal loss score (BSS stained optic nerve) in lysolecithin induced acute optic neuritis model; format: in vivo, Sprague Dawley Rat
Description: (§1) • Receipt of animals (Male Sprague Dawley Rats, Age: 12-13 weeks, Body weight range at the time of study initiation: 306.8 — 385.2 g) and acclimatization of animals for a period of at least one week • Day 0: Administration of Lysolecithin in optic nerve • Administration of test compound (BN201) daily (Day 0 to day 6=7 doses in total) intra-peritoneally (IP) at various doses (10 mg/Kg, 25 mg/Kg, 70 mg/Kg) and Intravenously (infusion 25 mg/Kg) over 2 h for block1. • On day 6, Sampling of blood from block1 for plasma at predetermined time points (8-9 time points) for PK and tissue collection (Eye and optic nerve) for histopathological assessment. • Determination of plasma levels of BN201 by LC-MS/MS • Determination of Pharmacokinetic Parameters of BN201 by WinNonlin Analysis • Test compound administration (IP@10 & 25 mg/Kg) once daily (Day 0 to day 6=7 doses in total) for block2; Tissue collection (Eye and optic nerve collection during termination of the study) on day 14, and 28 for histopathological assessment. 3. Animal Conditioning
(§2) Animals were anesthetized; the shaved skin was disinfected with 75% ethanol. A 1 cm incision was made in the skin above the orbit of an eye. The lacrimal glands and extraocular muscles were resected to expose 3 mm of the optic nerve under an operating microscope. The dura and arachnoid matter around the optic nerve were opened longitudinally. A small amount of dye was placed on the dura to show the microinjection site. This is done to identify the focal lesion for the histology. Microinjection was performed with a glass micropipette attached to a Hamilton syringe. The pipette was inserted into the optic nerve as superficially as possible at 2 mm posterior to the globe, and 0.8 μL of 1% lysolecithin (with 0.02% Evan's Blue) was slowly pressure-injected into the nerve over approximately 30 seconds. The sham control rats (animals without disease) were injected with 0.02% Evan's Blue in 0.8 μL saline without lysolecithin. After the injection, the skin incision was sutured, and antibiotic solution were administered to prevent infection.
(§3) • Group 1 and 2 served as sham and pathological control respectively and only saline was administered • Test compound was delivered once at various doses (as mentioned above) through IP or IV infusion in the respective groups. The first dosage was given 1 hour after Lysolecithin injection and repeated once/day until the end of the experiment • On day 6, blood was collected at various time points after administration of test item for drug concentration measurement: • Group 3-5 (IP groups): Pre-dose, 0.25, 0.5, 1, 4, 8 h, 12 h & 24 h (8 time points) • Group 6 (IV Infusion group): Pre-dose, then the following times post infusion: Oh (end of the infusion), 0.25 h, 0.5 h, 1 h, 4 h, 8 h, 12 h & 24 h (9 time points) • ˜200 μL of blood per time point was collected from Jugular vein for all the time points in K2EDTA blood collection tubes and stored at 4° C. until plasma separation within 30 minutes. After plasma separation, all the plasma samples were stored in two aliquots at −80° C. until the completion of all the time points. Further, one aliquot of plasma samples was submitted together to the DMG/KG for drug concentration analysis. 9. Observation and Readouts 9.1 Body weight
(§4) • Animals were euthanized on Day 7 with CO2 and were perfused transcardially with saline and 4% paraformaldehyde. Optic nerves (from globe to chiasm) and eye were removed and were fixed in 1% paraformaldehyde overnight. Eye from all the animals were collected in Davidson's fixative. • All tissues were processed in an automatic tissue processor and embedded in paraffin. Five-micro meter-thick (5 μm) transverse sections were made at the site of injections (at the place of the dye) using a rotary microtome. • Serial sections of each optic nerve were obtained (4-6 sections). […]

[2] = Plasma pharmacokinetics of BN201 in rats (LC-MS/MS, WinNonlin); format: in vivo, Sprague Dawley Rat; conditions: 7 doses, Mean ± SEM; for Vd: iv, 25 mg/kg; for AUC(0-inf) / AUC(0-t) / Cmax / Tmax / half-life / AUC_%Extrap (obs): rat plasma
Description: as §1, §3
Study samples were processed by protein precipitation method using cold acetonitrile. In brief, 10 μL of plasma was mixed with 200 μL of acetonitrile containing 100 ng/mL-Verapamil as internal standard. The contents were vortexed to ensure mixing and the precipitated protein was removed by centrifugation at 4000 rpm for 15 minutes at 4° C. The supernatant was collected and submitted for Bioanalysis.

[3] = tested on: Lysolecithin induced optic neuritis in SD Rats; assay: Overall efficacy in lysolecithin induced acute optic neuritis model; format: in vivo, Sprague Dawley Rat; conditions: daily IV 25 mg/Kg (2 h infusion) compared to 10, 25 and 70 mg/Kg IP
Description: The aim of Block1 was to determine the efficacy of BN201 administered intraperitoneally at various doses (10 mg/Kg, 25 mg/Kg, 70 mg/Kg) and intravenously at 25 mg/Kg in Lysolecithin induced optic neuritis in SD Rats (7 days study).
The aim of Block2 was to determine the efficacy of BN201 in long duration model of lysolecithin induced optic neuritis in SD rats (14 and 28 day study) […]
• Group 1 and 2 served as sham and pathological control respectively and only saline was administered • Test compound was delivered once at various doses (as mentioned above) through IP or IV infusion in the respective groups. […] Observation and Readouts 9.1 Body weight

[4] = tested on: Lysolecithin induced optic neuritis in SD Rats; assay: Demyelination score (Luxol fast blue stained optic nerve) in lysolecithin induced acute optic neuritis model; format: in vivo, Sprague Dawley Rat
Description: as §1, §2, §3, §4

[5] = tested on: serum-glucocorticoid (SGK) pathway; conditions: cited from earlier work
[6] = tested on: Lysolecithin induced optic neuritis in SD Rats; assay: Inflammation (H&E stained optic nerve) in lysolecithin induced acute optic neuritis model; format: in vivo, Sprague Dawley Rat; conditions: BN201 treatment, conclusions over blocks 1 and 2
Description: as §1
Animals were anesthetized; the shaved skin was disinfected with 75% ethanol. […]
• Group 1 and 2 served as sham and pathological control respectively and only saline was administered • Test compound was delivered once at various doses (as mentioned above) through IP or IV infusion in the respective groups. […] Observation and Readouts 9.1 Body weight […]

[7] = Phase 1 trial in healthy volunteers (pharmacokinetics); format: in vivo; conditions: humans
[8] = Body weight in lysolecithin induced acute optic neuritis study; format: in vivo, Sprague Dawley Rat; conditions: Blocks 1 & 2, compared to pathological control group
Description: Body weight measurement was performed every morning from day 0 to day 7. All animals were observed regularly for clinical signs.

[9] = tested on: Lysolecithin induced optic neuritis in SD Rats; assay: Retinal ganglion cell (RGC) count in lysolecithin induced acute optic neuritis model; format: in vivo, Sprague Dawley Rat
Description: as §1, §2, §3, §4

[10] = Block 2, day 28, 25 mg/Kg IP day 0 to day 6, vs placebo (p<0.05)
[11] = male, Sprague Dawley, IP 10 mg/Kg once daily
[12] = male, Sprague Dawley, IP 25 mg/Kg once daily
[13] = male, Sprague Dawley, IP 70 mg/Kg once daily
[14] = male, Sprague Dawley, IV infusion 25 mg/Kg over 2 h once daily
[15] = BN201 treatment, short term and long term, summary vs untreated groups

For `CC(C)CN(CC(=O)N(CCCN1CCCC1=O)CC(N)=O)C(=O)CNCCc1ccccc1F` [BN201, [N-(2-(2′-fluorophenyl)ethyl)-glycyl]-[N-(2-methylpropyl)-glycyl]-N-[3-(2′-oxopyrrolidinyl)-propyl]glycinamide], the axonal loss ([1]; BN201 treatment, conclusions over blocks 1 and 2) was “reduced”, the “protection against axonal loss (axonal loss score)” value ([1]; Block 1, day 7, 10, 25 and 70 mg/Kg IP) was 36-39% and the “protection against axonal loss” value ([1]; Block 1, day 7, IV infusion 25 mg/Kg) was 62%. For the same compound, the Axonal loss score ([1]; Block 2, day 28, 10 mg/Kg IP day 0 to day 6, vs placebo (p<0.05)) was “significant reduction in axonal loss; also recorded: significantly lower”, the Axonal loss score [1, 10] was “significant reduction in axonal loss; also recorded: significantly lower” and the “protection of axons against injury” value ([1]; IP or IV, 10 to 70 mg/Kg/day for 6 days, short term (7 days) and long term (up to day 28 post-injury)) was “able to protect axons against injury”. The MRT inf ([2]; male, Sprague Dawley, plasma, rat, IV infusion 25 mg/Kg over 2 h once daily) was 3 h, the clearance ([2]; male, Sprague Dawley, plasma, rat, IV infusion 25 mg/Kg over 2 h once daily, read-out: CLp (converted)) was 31.7 mL/min/kg and the Vd ([2]; male, Sprague Dawley, rat, plasma, rat, IV infusion 25 mg/Kg over 2 h once daily, read-out: Vd) was 15.8 ± 2.2 L/kg. The Vd ([2]; male, Sprague Dawley, rat, plasma, rat, IV infusion 25 mg/Kg over 2 h once daily, read-out: Vdss) was 5.7 ± 1.2 L/kg, the AUC(0-inf) [2, 11] was 6990 ng·h/mL and the AUC(0-t) [2, 11] was 6920 ± 385 ng·h/mL. The Cmax [2, 11] was 6680 ± 349 ng/mL, the Tmax [2, 11] was 0.3 h and the half-life [2, 11] was 5.5 ± 0.9 h. The AUC(0-inf) [2, 12] was 14700 ± 840 ng·h/mL, the AUC(0-t) [2, 12] was 14500 ± 859 ng·h/mL and the Cmax [2, 12] was 14400 ± 1540 ng/mL. The Tmax [2, 12] was 0.3 h, the half-life [2, 12] was 5.8 ± 0.2 h and the AUC(0-inf) [2, 13] was 62800 ± 2760 ng·h/mL. The AUC(0-t) [2, 13] was 62400 ± 2720 ng·h/mL, the Cmax [2, 13] was 34700 ± 2010 ng/mL and the Tmax [2, 13] was 0.3 h. It also gave a half-life [2, 13] of 4.7 ± 0.8 h, an AUC(0-inf) [2, 14] of 15400 ± 1810 ng·h/mL and an AUC(0-t) [2, 14] of 15100 ± 1780 ng·h/mL. For the same compound, the Cmax [2, 14] was 10400 ± 1320 ng/mL, the Tmax [2, 14] was 2 h and the half-life [2, 14] was 6.2 ± 0.9 h. For the same compound, the “AUC_%Extrap (obs)” value ([2]; IP 10 mg/Kg once daily) was 1 ± 0.2%, the “AUC_%Extrap (obs)” value ([2]; IP 25 mg/Kg once daily) was 1 ± 0.3% and the “AUC_%Extrap (obs)” value ([2]; IP 70 mg/Kg once daily) was 0.5 ± 0.1%. For the same compound, the “AUC_%Extrap (obs)” value ([2]; IV infusion 25 mg/Kg over 2 h once daily) was 1.6 ± 0.2%, the “protection against optic neuritis” value [3] was “superior protection against optic neuritis” and the demyelination [4, 15] was “reduced; also recorded: significant improvement”. The “protection against demyelination (demyelination score)” value (“protection … (demyelination score)” for short) ([4]; Block 1, day 7, 10 mg/Kg IP) was 13%, the “protection … (demyelination score)” value ([4]; Block 1, day 7, 25 mg/Kg IP) was 15% and the protection against demyelination ([4]; Block 1, day 7, 25 mg/Kg IV infusion) was 22%. For the same compound, the “protection … (demyelination score)” value ([4]; Block 1, day 7, 70 mg/Kg IP) was 44%, the Demyelination score ([4]; Block 2, day 28, 10 mpk IP day 0 to day 6, vs placebo (p<0.05)) was “significantly lower” and the Demyelination score ([4]; Block 2, day 28, 25 mpk IP day 0 to day 6, vs placebo (p<0.05)) was “significantly lower”. The “activation of the SGK pathway, including phosphorylation of Foxo3 or NDRG1” value [5] was “activates the serum-glucocorticoid (SGK) pathway”, the inflammation [6] was “reduced inflammation” and the half-life ([7]; human, in vivo) was ≤ 8 h. The “clearance of the drug” value [7] was “quick clearance”, the drug accumulation [7] was “lack of drug accumulation” and the Body weight [8] was “did not significantly change the body weight”. The retinal ganglion cells [9, 15] was “significant improvement in retinal ganglion cells”, the “protection against retinal ganglion cell loss” value ([9]; Block 1, day 7, 25 mg/Kg IP) was 48% and the “protection against retinal ganglion cell loss” value ([9]; Block 1, day 7, 70 mg/Kg IP) was 69%. The RGC count ([9]; Block 1, day 7, BN201 treated groups vs pathological control) was “trend of increased RGC count”, the RGC count ([9]; Block 1, day 7, IV infusion 25 mg/Kg vs pathological control) was “statistically significant improvement in RGC count” and the RGC count [9, 10] was “improvements; also recorded: significantly higher”.
